Experimental findings from patent US20100293626A1, “METHODS FOR IMPROVEMENT OF BIRTH RATES IN CANIDAE ON SOMATIC CELL NUCLEAR TRANSFER” (SEOUL NATIONAL UNIVERSITY INDUSTRY FOUNDATION, priority 2007, published 2010) are described below.

In test [1] the test system is reconstructed oocytes (canine cloned embryos). Briefly: Nuclear remodeling of reconstructed oocytes after somatic cell nuclear transfer with roscovitine-treated donor cells. Type of test: cell-based, dog. The procedure:
Before performing somatic cell nuclear transfer, the cells were thawed and cultured for 24 hours in a medium supplemented with 15 μM roscovitine (i.e., DMEM+10% FBS+15 μM roscovitine). Then, the cells were treated with trypsin for about 2 minutes during somatic cell nuclear transfer and collected from the monolayer.
The nuclear donor cells prepared in Example 3 were microinjected into the enucleated oocytes prepared in Example 2. The nuclear donor cells were microinjected into a perivitelline space of the enucleated oocytes in the following manner. The enucleated oocytes were treated with […] phytohemagglutinin in the medium of Table 1, and the slit of the enucleated oocytes was held with a holding pipette. Then, a transfer pipette was inserted into the slit, and the single cells isolated from fibroblasts in Example 3 were injected between the cytoplasm and zona pellucida of the enucleated oocytes by the transfer pipette.
Then, the nuclear donor cell-oocyte couplets were placed in a fusion medium (containing 0.26 M mannitol, 0.1 mM MgSO4, 0.5 mM HEPES and 0.05% BSA) and interposed between two parallel electrodes attached to a micromanipulator (Nikon-Narishige, Japan). Then, the fusion of the couplets was induced by electrical stimulation applied twice at a voltage of 4 kV/cm for 15 μs using an electro-cell fusion apparatus (NEPA GENE Co., Chiba, Japan).
After 1 hour of electrical stimulation, the fusion of the nuclear donor cells with the oocyte cytoplasm was observed under a stereomicroscope. The fused embryos were selected and cultured for 1.5-4 hours in TCM-199 (Table 2) supplemented with 10% (v/v) FBS.
The nuclear transfer embryos obtained in Example 4 were cultured in mSOF containing 10 μM ionophore (Sigma) at 39° C. for 4 minutes, thus inducing the activation of the nuclear transfer embryos. Then, the nuclear transfer embryos were washed and further cultured in mSOF (Table 3) supplemented with 1.9 mM 6-dimethylaminopurin for 4 hours.
After performing canine somatic cell nuclear transfer into the enucleated oocytes using the microinjection method, the difference in the formation and change of nuclei between a control group not treated with roscovitine and a group treated with roscovitine for 24 hours, was examined.

The test system of a further test is surrogate mothers. Briefly: Pregnancy rate after transfer of nuclear transfer embryos into surrogate mothers. The class given is in vivo, dog. As for the experimental part: The nuclear transfer embryos from Example 5 were surgically transferred into the oviduct of estrus synchronized surrogate mothers. The transfer was carried out within 4 hours after the activation of the nuclear transfer embryos. […] For the transfer, the surrogate mothers were anesthetized by vascular injection with 0.1 mg/kg acepromazine and 6 mg/kg propofol, and maintained at the anesthetized state using 2% isoflurane. Operation area of the anesthetized female dogs was aseptically operated and incised on the center of the abdomen according to general laparotomy so as to expose the oviduct. The abdominal cavity was stimulated by hand to draw the ovary, the oviduct and the uterus to the incision. The mesovarium of the drawn ovary was carefully handled to recognize the opening of the oviduct, and a 3.5 F Tom cat catheter (Sherwood, St. Louis, Mo.) equipped with a 1.0 ml tuberculin syringe (Latex free, Becton Dickinson & CO. Franklin lakes, N.J. 07417) was inserted into the oviduct to secure a sufficient space in the front of the catheter. Then, the nuclear transfer embryos were injected into the oviduct through the catheter. Whether the nuclear transfer embryos were successfully injected was observed under a microscope. The abdominal suture was performed with an absorbable suture material, and then, skin suture was performed. To prevent post-surgery infection, a broad range of antibiotic was injected for 3 days.
At 23 days after transferring the nuclear transfer embryos into the surrogate mothers, pregnancies were detected using a SONOACE 9900 (Medison Co. LTD, Seoul, Korea) ultrasound scanner with an attached 7.0 MHZ linear probe. Pregnancy was monitored by ultrasound every 2 weeks after initial confirmation. As a result, it was confirmed that the dogs had become pregnant, and the cloned dogs were produced by inducing natural delivery or performing Cesarean section. […]

Where [2] appears, read: 1 hpf, donor cells treated with roscovitine for 24 hours.
[3] abbreviates: 4 hpa, donor cells treated with roscovitine for 24 hours.

As to `CC[C@@H](CO)Nc1nc(NCc2ccccc2)c2ncn(C(C)C)c2n1` [roscovitine], the “No. of reconstructed oocytes with IN (intact nucleus)” value in test [1] (1 hpf (hour post fusion), donor cells treated with roscovitine for 24 hours) was determined as 11. For the same compound, in test [1] (setting [2]), the “IN (%) for reconstructed oocytes” value is “(32.3 ± 7.0) %”, the “No. of reconstructed oocytes with NE (nuclear enlargement)” value was determined as 0, the “No. of reconstructed oocytes with NS (nuclear swelling)” value worked out at 0 and the “No. of reconstructed oocytes with PCC (premature chromosome condensation)” value was found to be 23. Moreover, in test [1] (setting [2]), the “PCC (%) for reconstructed oocytes” value is “(67.6 ± 7.0) %”. Also, the “No. of reconstructed oocytes with IN (intact nucleus)” value in test [1] (4 hpa (hour post activation), donor cells treated with roscovitine for 24 hours) turned out to be 0. Also, in test [1] (setting [3]), the “NE (%) for reconstructed oocytes” value was “(23.6 ± 7.5) %”, the “NS (%) for reconstructed oocytes” value was “(73.6 ± 7.5) %”, the “No. of reconstructed oocytes with NE (nuclear enlargement)” value is on record as 9 and the “No. of reconstructed oocytes with NS (nuclear swelling)” value came to 28. In test [1] (setting [3]), the “No. of reconstructed oocytes with PCC (premature chromosome condensation)” value came out at 1 and the “PCC (%) for reconstructed oocytes” value is reported as “(2.6 ± 3.3) %”. Besides, the “Nuclear swelling (NS) compared with control group, in words” value in test [1] (4 hours after activation of the fused embryos) is on record as “occurred more in the treated group than in the control group”. In addition, in test [1] (after electrical fusion (1 hour elsewhere in the source)), the “Rate of premature chromosome condensation (PCC) compared with control group, in words” value is listed as “at a rate significantly higher than that in the control group”. Besides, the “No. of pregnant mothers” value in the test on surrogate mothers (556 embryos transferred into 29 surrogate mothers, donor cells treated with roscovitine) is 11. The “Pregnancy rate (based on transfer embryos)” value in the test with surrogate mothers (556 transfer embryos) is listed as 3.95%. Besides, the “Pregnancy rate compared with control, in words” value in the test with surrogate mothers (somatic cell nuclear transfer after treatment with roscovitine) is on record as “very significantly increased”.
